Measured values published in patent publication US20070123491A1, “Podophyllotoxin derivatives as igf-1r inhibitors” (BIOVITRUM AB, priority 2003, published 2007).

Assays:
[1] = tested on: fibroblast growth factor receptor (FGFR); assay: Tyrosine phosphorylation of FGFR in intact FM55 melanoma cells; format: cell-based, human; conditions: Experiment 3, 0.7 μM, 1 h, control = 100%
Description: (§1) Cells were cultured to subconfluency in 6-cm plates, and then fresh medium containing 10% FBS and the desired compounds were added for 1 h. The cells were then lyzed and subjected to immunoprecipitation using specific antibodies. Immunoprecipitates were resolved by sodium dodecyl sulphate polyacrylamide gel electrophoresis (SDS-PAGE) and transferred to nitro-cellulose membranes and incubated with anti-phosphotyrosine antibody. Antibodies to actin (in cell extract) or IGF-1R beta subunit were used as loading controls. After detection the films were scanned for quantification.
(§2) The isolated cells were then lyzed in 10 ml ice-cold PBSTDS containing protease inhibitors (Carlberg, M., et al., J Biol Chem 271:17453-17462, 1996). 50 μl protein A or G agarose was added in 1 ml sample and incubated for 15 min at 4° C. on an orbital shaker. […] The protein content was determined by a dye-binding assay with a reagent purchased from Bio-Rad. […]
(§3) Following SDS-PAGE the proteins were transferred overnight to nitro-cellulose membranes (Hybond, Amersham, UK) and then blocked for 1 h at room temperature in a solution of 4% skimmed milk powder and 0.02% Tween 20 in PBS, pH 7.5. […] After another 3 washes the membranes were incubated with Streptavidin-labelled horseradish peroxidase for 30 min and then detected using Amersham ECL system (Amersham, UK). […]

[2] = tested on: platelet-derived growth factor receptor (PDGFR); assay: Tyrosine phosphorylation of PDGFR in intact FM55 melanoma cells; format: cell-based, human; conditions: Experiment 3, 0.7 μM, 1 h, control = 100%
Description: as §1, §2, §3

[3] = target: T1, epidermal growth factor receptor (EGFR) (Homo sapiens, UniProt P00533); assay: Tyrosine phosphorylation of EGFR in intact FM55 melanoma cells; format: cell-based; conditions: Experiment 3, 0.7 μM, 1 h, control = 100%
T1 construct: endogenous in cells; host or cells: FM55 human melanoma cells
Description: as §1, §2, §3

[4] = target: T2, insulin receptor (IR) (Homo sapiens, UniProt P06213); assay: Tyrosine phosphorylation of IR in intact FM55 melanoma cells; format: cell-based; conditions: Experiment 3, 0.7 μM, 1 h, control = 100%
T2 construct: endogenous in cells; host or cells: FM55 human melanoma cells
Description: as §1, §2, §3

[5] = tested on: insulin substrate-1 (IRS-1); assay: Tyrosine phosphorylation of IRS-1 in intact FM55 melanoma cells; format: cell-based, human; conditions: Experiment 3, 0.7 μM, 1 h, control = 100%
Description: as §1, §2, §3

[6] = target: T3, IGF-1R from P6 cell extract (Homo sapiens, UniProt P08069); assay: In vitro tyrosine kinase assay: IGF-1R-catalyzed pTG substrate phosphorylation; format: biochemical; conditions: cell-free
T3 construct: expressed in transfected cells; host or cells: P6 cell line (embryonic mouse fibroblasts)
Description: (§4) IGF-1R-catalyzed substrate phosphorylation of polyTyrGlu (pTG) was performed essentially as previously described [Parrizas M., et al., see above, and Blum G., et al., see above]. Immunoprecipitated IR from HepG2, IGF-1R from P6 cell extract and immunodepleted supernatant to assay non-IGF-1R tyrosine kinases. The phosphorylated polymer substrate was probed with a purified phosphotyrosine specific monoclonal antibody conjugated to horseradish peroxidase (HARP). Color was developed with HRP chromogenic substrate o-phenylenediamine dihydrochloride (OPD). The color was quantitated by spectrophotometry (BLISA reader) and reflects the relative amount of tyrosine kinase. The precipitate was immunoblotted with antibodies to IGF-1R and IR to verify the presence of the receptor. Serial dilutions were used to assay the optimal conditions with respect to the amount of IGF-1R and IR. The signal was linear for 30 minutes and was a function of IGF-1R concentration up to 75 ng/well. Briefly, 96 well plates (Immunolon, Nunc) were coated overnight at 4° C. with a mouse monoclonal antibody (LabVision) against the beta-subunit of IGF-1R at a concentration of 1 μg/ml. […]
(§5) We isolated the receptor and determined the effects of 4,5-demethylene-deoxypodophyllotoxin on IGF-1R catalyzed substrate tyrosine phosphorylation and IGF-1R autophosphorylation in-vitro. […]

[7] = target: epidermal growth factor receptor (Homo sapiens, UniProt P00533); assay: In vitro tyrosine kinase assay: EGFR substrate phosphorylation; format: biochemical; conditions: cell-free; data not shown
[8] = target: T4, insulin receptor (IR from HepG2) (Homo sapiens, UniProt P06213); assay: In vitro tyrosine kinase assay: insulin receptor substrate phosphorylation; format: biochemical; conditions: cell-free; data not shown
T4 construct: Immunoprecipitated IR from HepG2; endogenous in cells; host or cells: HepG2
Description: as §4, §5

[9] = tested on: non-IGF-1R kinases; assay: In vitro tyrosine kinase assay: non-IGF-1R kinases (IGF-1R immunodepleted supernatant); format: biochemical; conditions: cell-free; kinases obtained by immunodepletion of IGF-1R; data not shown
Description: as §4, §5

[10] = target: T5, IGF-1R (Homo sapiens, UniProt P08069); assay: IGF-1R tyrosine autophosphorylation, sandwich ELISA; format: biochemical; conditions: cell-free; stronger response by podophyllotoxin
Description: IGF-1R tyrosine autophosphorylation was analysed by a sandwich ELISA assay. Briefly, 96-well plates (Immunolon, Nunc) were coated overnight at 4° C. with 1 μg/well of the monoclonal antibody Ab-5 (LabVision) to the IGF-1R beta subunit. The plates were blocked with 1% BSA in PBS Tween for 1 h, then 80 µg/well of total protein lysate from the P6 cell line was added. As a negative control was used total protein lysate from R-cell line. The investigated compounds were added in tyrosine kinase buffer without ATP at room temperature for 30 min, prior to kinase activation with ATP. Kinase assay was performed using the Sigma kit.
We isolated the receptor and determined the effects of 4,5-demethylene-deoxypodophyllotoxin on IGF-1R catalyzed substrate tyrosine phosphorylation and IGF-1R autophosphorylation in-vitro. […] A stronger response was obtained by podophyllotoxin.
Target sequence in this assay (P08069 31-1367): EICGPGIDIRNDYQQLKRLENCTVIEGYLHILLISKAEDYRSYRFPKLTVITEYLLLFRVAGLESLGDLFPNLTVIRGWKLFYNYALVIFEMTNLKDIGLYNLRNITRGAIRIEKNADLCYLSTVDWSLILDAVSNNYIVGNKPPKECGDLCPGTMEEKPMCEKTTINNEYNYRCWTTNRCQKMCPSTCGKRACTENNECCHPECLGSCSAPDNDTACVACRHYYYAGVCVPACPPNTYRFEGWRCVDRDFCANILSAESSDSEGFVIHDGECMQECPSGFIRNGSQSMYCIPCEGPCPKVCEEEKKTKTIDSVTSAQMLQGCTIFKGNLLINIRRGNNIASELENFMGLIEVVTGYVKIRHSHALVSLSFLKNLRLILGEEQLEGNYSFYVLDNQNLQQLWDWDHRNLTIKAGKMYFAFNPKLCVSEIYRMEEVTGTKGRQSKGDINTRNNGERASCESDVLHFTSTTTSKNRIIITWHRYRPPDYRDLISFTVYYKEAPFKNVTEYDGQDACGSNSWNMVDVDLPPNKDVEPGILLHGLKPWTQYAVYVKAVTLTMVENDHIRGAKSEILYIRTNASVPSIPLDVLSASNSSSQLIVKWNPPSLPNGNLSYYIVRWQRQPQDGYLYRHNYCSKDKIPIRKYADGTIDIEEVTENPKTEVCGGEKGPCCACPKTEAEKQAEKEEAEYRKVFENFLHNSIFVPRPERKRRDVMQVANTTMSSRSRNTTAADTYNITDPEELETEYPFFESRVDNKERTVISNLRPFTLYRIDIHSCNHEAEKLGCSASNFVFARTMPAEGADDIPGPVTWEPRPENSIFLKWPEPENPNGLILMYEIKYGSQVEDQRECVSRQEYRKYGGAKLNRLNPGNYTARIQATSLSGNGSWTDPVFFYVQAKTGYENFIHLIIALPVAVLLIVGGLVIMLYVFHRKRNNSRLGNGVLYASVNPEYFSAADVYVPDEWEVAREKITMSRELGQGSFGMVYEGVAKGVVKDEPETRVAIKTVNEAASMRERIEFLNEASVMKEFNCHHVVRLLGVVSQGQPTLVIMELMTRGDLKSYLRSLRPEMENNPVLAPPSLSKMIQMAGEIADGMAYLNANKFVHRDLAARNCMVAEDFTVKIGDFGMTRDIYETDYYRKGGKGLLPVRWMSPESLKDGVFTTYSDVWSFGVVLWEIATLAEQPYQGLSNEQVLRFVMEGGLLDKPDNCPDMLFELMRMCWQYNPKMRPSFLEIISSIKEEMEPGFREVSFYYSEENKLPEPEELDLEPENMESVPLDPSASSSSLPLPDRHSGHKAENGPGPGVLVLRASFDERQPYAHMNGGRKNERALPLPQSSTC

[11] = target: T5, IGF-1R; assay: Tyrosine phosphorylation of IGF-1R in intact FM55 melanoma cells (immunoprecipitation, Western blot); format: cell-based; design: endogenous in cells; host or cells: FM55 human melanoma cells; conditions: 0.7 μM, 1 h; for Level of IGF-1R phosphorylation in intact cells (% OD): Experiment 1, FM55 melanoma cells, control OD = 100%; for Level of phosphorylation in intact cells (% OD), substrate IGF-1R: Experiment 3, FM55 cells, control = 100%
Description: as §1
Target sequence in this assay (P08069 31-1367): as above
The isolated cells were then lyzed in 10 ml ice-cold PBSTDS containing protease inhibitors (Carlberg, M., et al., J Biol Chem 271:17453-17462, 1996). 50 μl protein A or G agarose was added in 1 ml sample and incubated for 15 min at 4° C. on an orbital shaker. After centrifugation for 10 min at 10,000 r/min at 4° C. the supernatant was saved. The protein content was determined by a dye-binding assay with a reagent purchased from Bio-Rad. Bovine serum albumin was used as a standard. 15 μl Protein G Plus agarose and 5 μl anti-IGF-1R were added. After a 3 h incubation at 4° C. on an orbital shaker the precipitate was collected by pulse centrifugation in a micro centrifuge at 14,000×g for 10 s. The supernatant was discarded and the pellet was washed 3 times with PBSTDS.
Protein samples were solved in a 2×-sample buffer containing Laemmli buffer and 0.5% […] and boiled for 5 min at 96° C. Samples were separated by SDS-PAGE with a 4% stacking gel and 7.5% separation gel. Molecular weight markers (Bio Rad, Sweden) were run simultaneously in all experiments.
Following SDS-PAGE the proteins were transferred overnight to nitro-cellulose membranes (Hybond, Amersham, UK) and then blocked for 1 h at room temperature in a solution of 4% skimmed milk powder and 0.02% Tween 20 in PBS, pH 7.5. Incubations with the primary antibodies were performed for 1 h at room temperature, followed by 3 washes with PBS with Tween and incubation with the second antibody for 1 h room temperature. After another 3 washes the membranes were incubated with Streptavidin-labelled horseradish peroxidase for 30 min and then detected using Amersham ECL system (Amersham, UK). The films were scanned by Fluor-S (BioRad).
Melanoma cells (line FM55) were seeded in 6-cm dishes, at a concentration of 10,000 cells/cm2 in Minimal Essential Medium supplemented with 10% fetal calf serum (FCS). […] Phosphorylation of IGF-1R was detected by an anti-phosphotyrosine antibody using Western blotting. […] The intensities are quantified by a scanner, which measures the optical density (OD) of the signals. […]

[12] = target: T5, IGF-1R; assay: Effect on IGF-1R (method not given)
Target sequence in this assay (P08069 31-1367, species assumed): as the sequence (P08069 31-1367) above

[13] = target: isolated IGF-1R kinase (Homo sapiens, UniProt P08069); conditions: Blum et al., Biochemistry 2000; cited from earlier work
[14] = target: insulin receptor kinase (Homo sapiens, UniProt P06213); conditions: Blum et al., Biochemistry 2000; cited from earlier work
Sequence of insulin receptor kinase (P06213 28-1382): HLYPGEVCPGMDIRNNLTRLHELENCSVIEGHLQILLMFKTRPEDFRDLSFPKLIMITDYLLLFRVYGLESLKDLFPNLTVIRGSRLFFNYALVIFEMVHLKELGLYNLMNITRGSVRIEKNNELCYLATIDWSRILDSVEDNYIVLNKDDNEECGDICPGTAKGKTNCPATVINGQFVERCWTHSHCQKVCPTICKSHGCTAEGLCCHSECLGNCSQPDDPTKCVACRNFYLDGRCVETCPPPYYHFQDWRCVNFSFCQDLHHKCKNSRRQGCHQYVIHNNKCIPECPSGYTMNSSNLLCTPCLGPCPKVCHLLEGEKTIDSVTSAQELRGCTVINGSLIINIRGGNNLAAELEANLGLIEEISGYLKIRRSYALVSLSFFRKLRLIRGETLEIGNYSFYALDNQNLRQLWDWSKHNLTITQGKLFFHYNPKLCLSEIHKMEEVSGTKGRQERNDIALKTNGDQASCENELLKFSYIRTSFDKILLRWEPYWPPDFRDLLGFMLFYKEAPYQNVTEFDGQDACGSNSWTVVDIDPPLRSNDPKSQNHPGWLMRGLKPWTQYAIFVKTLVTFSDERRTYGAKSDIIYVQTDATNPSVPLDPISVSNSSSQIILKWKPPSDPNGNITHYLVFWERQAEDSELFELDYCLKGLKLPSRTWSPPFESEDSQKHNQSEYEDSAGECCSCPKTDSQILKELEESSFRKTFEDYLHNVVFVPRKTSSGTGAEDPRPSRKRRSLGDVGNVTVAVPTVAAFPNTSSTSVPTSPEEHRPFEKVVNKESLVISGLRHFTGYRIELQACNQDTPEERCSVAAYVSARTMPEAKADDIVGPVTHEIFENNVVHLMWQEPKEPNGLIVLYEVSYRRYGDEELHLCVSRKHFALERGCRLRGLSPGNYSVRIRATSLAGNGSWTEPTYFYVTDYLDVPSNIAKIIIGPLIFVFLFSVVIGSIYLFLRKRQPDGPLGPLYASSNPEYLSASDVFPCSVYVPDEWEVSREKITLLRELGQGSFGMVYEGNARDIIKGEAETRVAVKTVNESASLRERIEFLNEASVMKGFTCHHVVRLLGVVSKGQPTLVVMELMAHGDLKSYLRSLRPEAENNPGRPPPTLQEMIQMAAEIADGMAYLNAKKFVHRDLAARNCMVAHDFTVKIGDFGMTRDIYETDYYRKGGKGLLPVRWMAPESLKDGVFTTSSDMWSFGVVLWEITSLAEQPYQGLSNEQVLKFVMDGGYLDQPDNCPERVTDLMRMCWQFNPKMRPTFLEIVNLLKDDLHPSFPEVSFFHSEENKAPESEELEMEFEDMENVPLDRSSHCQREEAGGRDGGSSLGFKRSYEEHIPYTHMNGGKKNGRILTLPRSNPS

T4 sequence (P06213 28-1382): as above
T2 sequence (P06213 28-1382): as above
T3 sequence (P08069 31-1367): as the sequence (P08069 31-1367) above
Sequence of epidermal growth factor receptor (P00533 25-1210, species assumed): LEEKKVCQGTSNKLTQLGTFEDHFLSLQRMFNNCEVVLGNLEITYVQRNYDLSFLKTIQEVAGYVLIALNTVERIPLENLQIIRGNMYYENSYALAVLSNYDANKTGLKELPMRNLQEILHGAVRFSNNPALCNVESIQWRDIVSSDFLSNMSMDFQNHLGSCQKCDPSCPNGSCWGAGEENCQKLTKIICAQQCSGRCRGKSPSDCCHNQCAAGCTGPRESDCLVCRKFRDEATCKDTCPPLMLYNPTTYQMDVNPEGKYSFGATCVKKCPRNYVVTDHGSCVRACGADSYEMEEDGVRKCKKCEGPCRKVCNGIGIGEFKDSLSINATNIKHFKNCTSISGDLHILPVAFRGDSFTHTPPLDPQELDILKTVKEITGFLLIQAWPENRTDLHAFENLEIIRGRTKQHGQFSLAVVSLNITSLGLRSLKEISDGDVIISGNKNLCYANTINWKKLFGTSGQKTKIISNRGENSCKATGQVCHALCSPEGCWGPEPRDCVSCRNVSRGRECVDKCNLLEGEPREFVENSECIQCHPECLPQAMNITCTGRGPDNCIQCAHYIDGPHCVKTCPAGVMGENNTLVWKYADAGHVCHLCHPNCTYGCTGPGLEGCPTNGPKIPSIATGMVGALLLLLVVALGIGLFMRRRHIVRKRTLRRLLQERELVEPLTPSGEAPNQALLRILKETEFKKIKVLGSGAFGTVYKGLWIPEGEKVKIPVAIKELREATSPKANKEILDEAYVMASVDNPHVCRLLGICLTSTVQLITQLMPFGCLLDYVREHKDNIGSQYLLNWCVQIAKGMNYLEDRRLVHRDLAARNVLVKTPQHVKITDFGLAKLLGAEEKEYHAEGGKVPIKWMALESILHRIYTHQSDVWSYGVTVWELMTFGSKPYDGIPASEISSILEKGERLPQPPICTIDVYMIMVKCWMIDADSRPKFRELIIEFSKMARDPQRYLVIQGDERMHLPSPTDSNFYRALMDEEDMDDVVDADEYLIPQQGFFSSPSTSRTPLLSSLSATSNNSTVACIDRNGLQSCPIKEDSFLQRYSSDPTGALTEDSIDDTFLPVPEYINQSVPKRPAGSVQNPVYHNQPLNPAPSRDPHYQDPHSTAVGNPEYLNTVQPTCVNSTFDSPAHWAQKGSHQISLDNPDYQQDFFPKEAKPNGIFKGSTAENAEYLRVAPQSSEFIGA
Sequence of isolated IGF-1R kinase (P08069 31-1367): as the sequence (P08069 31-1367) above

SMILES	Level of phosphorylation in intact cells (% OD), substrate FGFR [1]	Level of phosphorylation in intact cells (% OD), substrate PDGFR [2]	Level of phosphorylation in intact cells (% OD), substrate EGFR [3]	Level of phosphorylation in intact cells (% OD), substrate IR [4]	Level of phosphorylation in intact cells (% OD), substrate IRS-1 [5]	Decrease of pTG substrate phosphorylation by the IGF-1 receptor ([6]; 0.5 μM)	Interference with substrate phosphorylation of epidermal growth factor receptor tyrosine kinase [7]	Interference with substrate phosphorylation of insulin receptor tyrosine kinase [8]	Interference with substrate phosphorylation of other non-IGF-1R kinases [9]	Inhibition of autophosphorylation of IGF-1R in vitro [10]	Level of IGF-1R phosphorylation in intact cells (% OD) [11]	Level of phosphorylation in intact cells (% OD), substrate IGF-1R [11]	Effect on IGF-1R substrate phosphorylation [6]	Effect on IGF-1R [12]	IC50 [13]	Effect on insulin receptor kinase [14]
COc1cc(C2c3cc(O)c(O)cc3CC3COC(=O)C32)cc(OC)c1OC (stereo not drawn) [4,5-demethylene-deoxypodophyllotoxin]	104 % OD	99 % OD	100 % OD	102 % OD	70 % OD	about 35%	failed to interfere	failed to interfere	failed to interfere	inhibited	73 % OD	65 % OD	–	–	–	–
COc1cc([C@@H]2c3cc4c(cc3[C@H](O)[C@H]3COC(=O)[C@H]23)OCO4)cc(OC)c1OC [Podophyllotoxin, podophyllotoxin]	99 % OD	101 % OD	102 % OD	103 % OD	9 % OD	–	had only effect on IGF-1R	had only effect on IGF-1R	had only effect on IGF-1R	inhibited	10 % OD	12 % OD	had only effect on IGF-1R	–	–	–
COc1cc(C2c3cc4c(cc3C(OC3OC5COC(c6ccccc6)OC5C(O)C3O)C3COC(=O)C23)OCO4)cc(OC)c1OC [podophyllotoxin-4,6-O-benzylidene-β-D-glucopyranoside]	–	–	–	–	–	–	–	–	–	–	–	–	–	completely disappeared	–	–
N#C/C(=C\c1ccc(O)c(O)c1)C(=O)c1ccc(O)c(O)c1 [tyrphostin AG 538]	–	–	–	–	–	–	–	–	–	–	–	–	–	–	400 nM	blocked
